# In US20250339391A1, “METHODS FOR EFFECTIVE MANAGEMENT OF PAIN” (South Rampart Pharma, Inc., priority 2024, published 2025):
# “Also recorded” adds a separate entry of the source.
# Key:
# [1] = system: conscious telemetered beagle dogs; assay: Cardiovascular effect in conscious telemetered beagle dogs (GLP); assay type: in vivo, dog
# Protocol: The effects of SRP-001 on hERG current amplitude at physiologic temperatures were evaluated over a nominal concentration range of 0.1 μM to 100M. A vehicle group (10% DMSO) was included in the study for comparison, and dofetilide (10 nM) was used as a reference substance. The vehicle and positive controls indicated appropriate sensitivity of the test systems. […] Next, the potential acute effects of oral SRP-001 on cardiovascular function in conscious telemetered beagle dogs was done using a Latin Square design; 4 male naïve beagle dogs each received vehicle (10% DMSO: 10% labrasol: 80% PEG400) and three doses (30, 90, and 150 mg/kg) of SRP-001 nanosuspension by oral gavage. […] A single dose was administered on the day of dosing, and a washout period of seven days was allowed between doses. One-min means of hemodynamic parameters, as well as ECG parameters and body temperature, were measured for a period of at least 24 h. One-min tracings of the ECGs were obtained at 15 min prior to dosing and at 30 min, 1, 2, 4, 8, 12, and 24 h post-dose. Qualitative evaluation of the ECGs was done by a board-certified veterinary cardiologist.
# [2] = system: Sprague-Dawley rats; assay: 28-day oral toxicity study in Sprague-Dawley rats with 14-day recovery (GLP); assay type: in vivo
# From the text: 5) A 28-day Oral Toxicity Study of SRP-001 in Sprague-Dawley Rats with 14-day Recovery (GLP study) We next set out to determine the toxicity and toxicokinetics of SRP-001 when administered via oral gavage once daily to Sprague-Dawley Rats for 28 d (Calvert Labs/Altasciences, Scott Township, PA USA). The study also assessed the reversibility of any toxicity observed with a 14-d recovery period. One hundred thirty-six experimentally naïve Sprague-Dawley rats (68 males and 68 females), 8 weeks old and weighing 167-295 g for males and females at the outset of the study, were assigned to toxicology treatment groups (Groups 1-4) or toxicokinetic groups (Groups 5-7). For toxicology groups, 10 animals/sex/dose were administered 0, 300, 900, or 1500 mg/kg/d SRP-001. An additional 5 animals/sex/dose in Groups 1 and 4 were targeted for a 14-d recovery period and euthanized on day 43. For toxicokinetic groups, 6 animals/sex/dose were administered 300, 900, or 1500 mg/kg/d SRP-001. Mortality/morbidity was performed twice daily and once prior to scheduled sacrifice. Animals in Groups 1-4 were observed prior to each dose administration and 1-3 h post-dose. Animals in Groups 1-4 were also observed once daily on non-dosing days and once prior to scheduled sacrifice. Body weights were recorded prior to randomization/selection, prior to dose administration on day 1, and weekly thereafter. Food consumption was determined weekly for animals in Groups 1-4. Ophthalmology examinations were performed before treatment initiation and during the last week of dosing for animals in Groups 1-4. The functional observational battery was assessed for 5 animals/sex/group in Groups 1-4 once prior to dosing and at 1-2 h following dose administration on day 1. Blood for evaluation of hematology, coagulation, and clinical chemistry and urine for urinalysis was collected from animals in Groups 1-4 on day 29 or day 43. Blood for toxicokinetic evaluation was collected from animals in Groups 5-7 at selected timepoints on days 1 and 28. All surviving animals in Groups 1-4 were sacrificed on day 29 or day 43. Selected tissues were harvested at necropsy, selected organs weighed, and selected tissues evaluated microscopically.
compound,measurement,setting,value
"CCN(CC)C(=O)c1ccccc1S(=O)(=O)NCC(=O)Nc1ccc(O)cc1 [SRP-001, N,N-diethyl-2-[[2-(4-hydroxyanilino)-2-oxo-ethyl]sulfamoyl]benzamide]","effects on blood pressure, heart rate, ECG morphology, ECG measurements, body temperature","[1]; 30, 90 and 150 mg/kg oral",no effects on pulmonary function or cardio-telemetry; also recorded: did not induce any biologically relevant effects
same,QTc,[1]; telemetered safety pharmacology study in dogs,no prolonged QTc
same,doses with minimal to mild centrilobular hepatocellular hypertrophy,"[2]; both, Sprague-Dawley, rat, in vivo, 28 d",≥ 300 mg/kg/day
same,doses without treatment-related adverse effects,"[2]; both, Sprague-Dawley, rat, in vivo, po, 28 d",up to 1500 mg/kg/day
same,no-adverse effect level (NOAEL),[2]; once daily for 28 d,1500 mg/kg
same,hematology and serum chemistry changes,"[2]; rat, in vivo","increases in globulin, albumin, and total protein and decreases in aspartate aminotransferase, alkaline phosphatase, and mean corpuscular hemoglobin concentration"
